The values below come from US10800741B2 (ANCUREALL PHARMACEUTICAL (SHANGHAI) CO., LTD., priority 2017, dated 2020).

Common to all, as to format: cell-based, Human
In assay [1] the test system is H1703 (PDGFRa amp). The experiment in a line: In vitro growth inhibition of H1703 tumor cells (MTT/CCK8). The settings on record: Homo sapiens, NCI-H1703; in vitro growth inhibition (or induction of apoptosis), cells cultured 3 to 5 days, MTT (CCK8); read-out: IC50 H1703 (PDGFRa amp).
The subject of assay [2] is H1581 (FGFR1 amp). The experiment in a line: In vitro growth inhibition of H1581 tumor cells (MTT/CCK8). As to conditions: Homo sapiens, NCI-H1581; in vitro growth inhibition (or induction of apoptosis), cells cultured 3 to 5 days, MTT (CCK8); read-out: IC50 H1581 (FGFR1 amp).
Assay [3] relates to Hep3B2 (FGFR3/4+++). As to the kind of experiment: In vitro growth inhibition of Hep3B2 tumor cells (MTT/CCK8). The settings on record: Homo sapiens, Hep3B; in vitro growth inhibition (or induction of apoptosis), cells cultured 3 to 5 days, MTT (CCK8); read-out: IC50 Hep3B2 (FGFR3/4+++).
Assay [4] concerns Kasumi-1 (KIT N822K). The experiment in a line: In vitro growth inhibition of Kasumi-1 tumor cells (MTT/CCK8). The settings on record: Homo sapiens, Kasumi 1; in vitro growth inhibition (or induction of apoptosis), cells cultured 3 to 5 days, MTT (CCK8); read-out: IC50 Kasumi-1 (KIT N822K).
In assay [5] the test system is Karpas 299 (NPM-ALK). The experiment in a line: In vitro growth inhibition of Karpas 299 tumor cells (MTT/CCK8). The settings on record: Homo sapiens, KARPAS-299; in vitro growth inhibition (or induction of apoptosis), cells cultured 3 to 5 days, MTT (CCK8); read-out: IC50 Karpas 299 (NPM-ALK).
For assay [6], the system named is KATO III (FGFR2 amp). As to the kind of experiment: In vitro growth inhibition of KATO III tumor cells (MTT/CCK8). The settings on record: Homo sapiens, KATO III; in vitro growth inhibition (or induction of apoptosis), cells cultured 3 to 5 days, MTT (CCK8); read-out: IC50 KATO III (FGFR2 amp).
Assay [7] has as its system MOLM-13 (FLT3-ITD). The experiment in a line: In vitro growth inhibition of MOLM-13 tumor cells (MTT/CCK8). The settings on record: Homo sapiens, MOLM-13; in vitro growth inhibition (or induction of apoptosis), cells cultured 3 to 5 days, MTT (CCK8); read-out: IC50 MOLM-13 (FLT3-ITD).
Assay [8] relates to KCL-22 (BCR-ABL). As to the kind of experiment: In vitro growth inhibition of KCL-22 tumor cells (MTT/CCK8). As to conditions: Homo sapiens, KCL-22; in vitro growth inhibition (or induction of apoptosis), cells cultured 3 to 5 days, MTT (CCK8); read-out: IC50 KCL-22 (BCR-ABL).

`COc1cc2nccc(Nc3ccc(NC(=O)Nc4cc(C(C)(C)C)n[nH]4)cc3C)c2cc1C(N)=O` [Compound 98, 4-{4-[3-(5-tert-butyl-2H-pyrazol-3-yl)-ureido]-2-methyl-phenylamino}-7-methoxy-quinolin-6-carboxamide]: the IC50 was 0.605 µM in assay [1]; 0.433 µM in assay [2]; 0.843 µM in assay [3]; greater than 1 µM in assay [4]; greater than 1 µM in assay [5]; 0.27 µM in assay [6]. In addition, the IC50 in assay [7] was 0.006 µM; in assay [8], greater than 1 µM.

Regarding `CC(C)(C)c1cc(NC(=O)Nc2ccc(Oc3ccnc4cc(O)c(C(N)=O)cc34)c(Cl)c2Cl)[nH]n1` [Compound 92, 4-{4-[3-(5-tert-butyl-2H-pyrazol-3-yl)-ureido]-2,3-dichloro-phenoxy}-7-hydroxy-quinolin-6-carboxamide], the IC50 was determined as 0.453 µM in assay [1]; 0.146 µM in assay [2]; 0.232 µM in assay [3]; 0.182 µM in assay [4]; 0.749 µM in assay [5]; 0.0175 µM in assay [6]. The IC50 in assay [7] came out at 0.0289 µM; in assay [8] it was 0.0675 µM.

For the compound `CCc1cc(NC(=O)Nc2cc(C(C)(C)C)n[nH]2)ccc1Oc1ccnc2cc(OC)c(C(N)=O)cc12` [Compound 106, 4-{4-[3-(5-tert-butyl-2H-pyrazol-3-yl)-ureido]-2-ethyl-phenoxy}-7-methoxy-quinolin-6-carboxamide], the IC50 is 0.12 µM in assay [1]; 0.168 µM in assay [2]; greater than 1 µM in assay [3]; 0.176 µM in assay [4]; 0.38 µM in assay [5]; 0.0467 µM in assay [6]. The IC50 in assay [7] is 0.00937 µM; in assay [8] it was 0.115 µM.

As to `CNC(=O)c1cc2c(Oc3ccc(NC(=O)Nc4cc(C(C)(C)C)no4)c(Cl)c3)ccnc2cc1OC` [Compound 15, 4-{4-[3-(3-tert-butyl-isoxazol-5-yl)-ureido]-3-chloro-phenoxy}-7-methoxyquinolin-6-carboxylic acid methylamide], the IC50 in assay [1] is 0.0129 µM; in assay [2], 0.00106 µM; in assay [3] it was 0.0241 µM; in assay [4], 0.00543 µM; in assay [5], 0.516 µM; in assay [6], 0.00134 µM. The IC50 is 0.00525 µM in assay [7] and 0.00409 µM in assay [8].

As for `COc1cc2nccc(Oc3ccc(NC(=O)Nc4cc(C(C)(C)C)nn4CCN4CCOCC4)c(Cl)c3)c2cc1C(N)=O` [Compound 31, 4-(4-{3-[5-tert-butyl-2-(2-morpholin-4-yl-ethyl)-2H-pyrazol-3-yl]-ureido}-3-chloro-phenoxy)-7-methoxyquinolin-6-carboxamide], the IC50 in assay [1] stood at 0.025 µM; in assay [2], 0.0234 µM; in assay [3], 0.0329 µM; in assay [4] it was 0.0404 µM; in assay [5], 0.465 µM; in assay [6], 0.00012 µM. The IC50 stood at 0.00945 µM in assay [7] and 0.0512 µM in assay [8].

In the case of `CNC(=O)c1cc2c(Oc3ccc(NC(=O)Nc4cc(C(C)(C)C)nn4C)c(Cl)c3)ccnc2cc1OCCOC` [Compound 59, 4-{4-[3-(5-tert-butyl-2-methyl-2H-pyrazol-3-yl)-ureido]-3-chloro-phenoxy}-7-(2-methoxy-ethoxy)-quinolin-6-carboxylic acid methylamide], the IC50 in assay [1] was determined as 0.00817 µM; in assay [2], 0.00505 µM; in assay [3], 0.0194 µM; in assay [4] it was 0.00195 µM; in assay [5], 0.195 µM; in assay [6], 0.00011 µM. In addition, the IC50 was 0.00295 µM in assay [7] and 0.00962 µM in assay [8].
